For data set [1] the following is noted: 12 healthy adult human subjects; most events, except for one subject; cited from earlier work.
For data set [2] the following is noted: cited from earlier work.
Data set [3] is described as follows: Phase I cocaine interaction study: heart rate and blood pressure.

On to `CC(C(=O)O)c1cccc(NC(=O)NCC(=O)N2C(C(=O)OC(C)(C)C)CSC2c2ccccc2F)c1` [RPR 102681, (2S)-2-{3-[3-({[(2R,4R)-4-tert-Butoxycarbonyl-2-(2-fluorophenyl)]-3-thiazolidinyl}carbonylmethyl)ureido]phenyl}propionic acid], for which, in data set [1], the “severity of adverse events and treatment-associated adverse events” value is given as “mild or moderate”. In data set [2] (first clinical study), the diarrhea is 2 occurrences, the euphoria was 2 occurrences, the headaches is recorded as 3 occurrences and the postural hypotension is 6 occurrences. Further, in data set [2] (first clinical study), the somnolence is given as 3 occurrences. Besides, in data set [2] (second clinical study), the flatulence is 4 occurrences, the headache is listed as 1 occurrences and the pharyngitis is recorded as 4 occurrences. Moreover, the serious adverse events entry in data set [2] (two clinical studies in France and two NIH studies) is given as “no serious adverse events”. Further, the “elevation of DBP after cocaine” value in data set [3] (RPR 800 mg, cocaine 20 mg i.v., P-value=0.093) is “reduces”. Also, the “elevation of HR after cocaine” value in data set [3] (RPR 800 mg, cocaine 40 mg i.v., P-value=0.009) is given as “reduces the elevation of HR”. In data set [3] (RPR 102681 200 mg, cocaine 20 mg i.v., P-value=0.031), the “elevation of SBP after cocaine” value is “increased the elevation of SBP”. Further, the “SBP increase in response to cocaine vs placebo group” value in data set [3] (cocaine 20 mg, GEE model adjusted for baseline, P-value=0.0412) is on record as “significantly greater SBP increase”. The “maximum HR/SBP/DBP changes across RPR 102681 dose conditions” value in data set [3] (pair-wise comparisons within RPR 102681 group, in general) is listed as “does not significantly change HR/SBP/DBP”. For the same compound, the “HR/SBP/DBP, RPR 102681 vs placebo groups” value in data set [3] (prior to infusions, post saline or post cocaine infusions, any day) is listed as “no statistical difference”.
